Measurements reported in ChEMBL document CHEMBL2407065, “Discovery of 7-aminofuro[2,3-c]pyridine inhibitors of TAK1: optimization of kinase selectivity and pharmacokinetics” (Bioorg Med Chem Lett, 2013).

How the values were obtained:
[1] = Drug metabolism in mouse liver microsomes assessed as M+176 formation; assay type: ADME, Microsome
[2] = system: Liver microsomes; assay: Drug metabolism in human liver microsomes assessed as M+176 formation; assay type: ADME, Microsome
[3] = AUC (0 to last) in mouse at 20 mg/kg, po; assay type: ADME, organism-based; set-up: time 0 - last, dose 20 mg/kg, route oral; settings: plasma
[4] = Oral bioavailability in mouse at 20 mg/kg; assay type: ADME, organism-based; settings: in vivo
[5] = Volume of distribution at steady state in mouse at 2 mg/kg, iv; assay type: ADME, organism-based; set-up: dose 2 mg/kg, route intravenous; settings: in vivo, read-out: Vdss
[6] = Cmax in mouse at 20 mg/kg, po; assay type: ADME, organism-based; set-up: dose 20 mg/kg, route oral; settings: in vivo
[7] = AUC (0 to infinity) in mouse at 2 mg/kg, iv; assay type: ADME, organism-based; set-up: dose 2 mg/kg, route intravenous, time infinity; settings: plasma
[8] = Half life in mouse at 2 mg/kg, iv; assay type: ADME, organism-based; set-up: dose 2 mg/kg, route intravenous; settings: in vivo
[9] = Clearance in mouse at 2 mg/kg, iv; assay type: ADME, organism-based; set-up: dose 2 mg/kg, route intravenous; settings: in vivo
[10] = AUC (0 to infinity) in mouse at 20 mg/kg, po; assay type: ADME, organism-based; set-up: time infinity, dose 20 mg/kg, route oral; settings: plasma
[11] = Tmax in mouse at 20 mg/kg, po; assay type: ADME, organism-based; set-up: dose 20 mg/kg, route oral; settings: in vivo
[12] = Metabolic stability in human liver microsomes assessed as extraction ratio; assay type: ADME, Microsome; settings: read-out: ERH
[13] = Metabolic stability in mouse liver microsomes assessed as extraction ratio; assay type: ADME, Microsome; settings: read-out: ERH
[14] = molecular target: Vascular endothelial growth factor receptor 2 (Homo sapiens, UniProt P35968); assay: Inhibition of KDR autophosphorylation overexpressed in VEGF-stimulated human HEK293 cells; assay type: cell-based
[15] = molecular target: T1, Mitogen-activated protein kinase kinase kinase 7 (Homo sapiens, UniProt O43318); assay: Inhibition of TAK1 in human HCT116 cells assessed as inhibition of TNF-alpha-stimulated JNK phosphorylation; assay type: cell-based, HCT-116
T1 sequence (O43318 whole entry): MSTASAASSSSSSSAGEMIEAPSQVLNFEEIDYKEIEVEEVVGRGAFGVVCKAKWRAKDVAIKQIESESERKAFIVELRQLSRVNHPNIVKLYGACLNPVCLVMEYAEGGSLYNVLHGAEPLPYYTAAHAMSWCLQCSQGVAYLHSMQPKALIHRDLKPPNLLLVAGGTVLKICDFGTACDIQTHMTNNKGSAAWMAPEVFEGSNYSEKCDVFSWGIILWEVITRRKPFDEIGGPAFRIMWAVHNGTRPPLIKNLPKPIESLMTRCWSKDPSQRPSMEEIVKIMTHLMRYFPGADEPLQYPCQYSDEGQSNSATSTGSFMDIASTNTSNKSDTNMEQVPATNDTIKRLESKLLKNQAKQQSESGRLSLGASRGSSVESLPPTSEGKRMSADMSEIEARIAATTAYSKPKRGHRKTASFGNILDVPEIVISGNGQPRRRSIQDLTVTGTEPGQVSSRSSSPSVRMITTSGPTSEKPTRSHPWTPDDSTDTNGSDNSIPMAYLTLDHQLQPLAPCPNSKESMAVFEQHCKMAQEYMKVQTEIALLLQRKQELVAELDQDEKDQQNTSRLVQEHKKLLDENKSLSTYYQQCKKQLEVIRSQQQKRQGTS

[16] = molecular target: Aurora kinase B (Homo sapiens, UniProt Q96GD4); assay: Inhibition of aurora B kinase in human HT-29 cells assessed as inhibition of histone H3 S10 phosphorylation; assay type: cell-based
[17] = molecular target: TAK1/TAB1 (Homo sapiens, UniProt O43318); assay: Inhibition of TAK1-TAB1 (unknown origin) by alphascreen assay in presence of ATP; assay type: protein-complex assay
[18] = Oral bioavailability in mouse at 100 mg/kg; assay type: ADME, organism-based; settings: in vivo
[19] = AUC (0 to infinity) in mouse at 100 mg/kg, po; assay type: ADME, organism-based; set-up: time infinity, dose 100 mg/kg, route oral; settings: plasma
[20] = Cmax in mouse at 100 mg/kg, po; assay type: ADME, organism-based; set-up: dose 100 mg/kg, route oral; settings: in vivo
[21] = molecular target: T1, Mitogen-activated protein kinase kinase kinase 7; assay: Inhibition of TAK1 in human TOV21G cells assessed as inhibition of JNK phosphorylation
[22] = Antitumor activity against human TOV21G cells xenografted in CD-1 nude mouse assessed as tumor growth inhibition at 100 mg/kg, sc qd administered for 14 days measured on day 15 relative to vehicle-treated control; assay type: functional; settings: route subcutaneous, read-out: TGI

Chain of Vascular endothelial growth factor receptor 2 (P35968 whole entry): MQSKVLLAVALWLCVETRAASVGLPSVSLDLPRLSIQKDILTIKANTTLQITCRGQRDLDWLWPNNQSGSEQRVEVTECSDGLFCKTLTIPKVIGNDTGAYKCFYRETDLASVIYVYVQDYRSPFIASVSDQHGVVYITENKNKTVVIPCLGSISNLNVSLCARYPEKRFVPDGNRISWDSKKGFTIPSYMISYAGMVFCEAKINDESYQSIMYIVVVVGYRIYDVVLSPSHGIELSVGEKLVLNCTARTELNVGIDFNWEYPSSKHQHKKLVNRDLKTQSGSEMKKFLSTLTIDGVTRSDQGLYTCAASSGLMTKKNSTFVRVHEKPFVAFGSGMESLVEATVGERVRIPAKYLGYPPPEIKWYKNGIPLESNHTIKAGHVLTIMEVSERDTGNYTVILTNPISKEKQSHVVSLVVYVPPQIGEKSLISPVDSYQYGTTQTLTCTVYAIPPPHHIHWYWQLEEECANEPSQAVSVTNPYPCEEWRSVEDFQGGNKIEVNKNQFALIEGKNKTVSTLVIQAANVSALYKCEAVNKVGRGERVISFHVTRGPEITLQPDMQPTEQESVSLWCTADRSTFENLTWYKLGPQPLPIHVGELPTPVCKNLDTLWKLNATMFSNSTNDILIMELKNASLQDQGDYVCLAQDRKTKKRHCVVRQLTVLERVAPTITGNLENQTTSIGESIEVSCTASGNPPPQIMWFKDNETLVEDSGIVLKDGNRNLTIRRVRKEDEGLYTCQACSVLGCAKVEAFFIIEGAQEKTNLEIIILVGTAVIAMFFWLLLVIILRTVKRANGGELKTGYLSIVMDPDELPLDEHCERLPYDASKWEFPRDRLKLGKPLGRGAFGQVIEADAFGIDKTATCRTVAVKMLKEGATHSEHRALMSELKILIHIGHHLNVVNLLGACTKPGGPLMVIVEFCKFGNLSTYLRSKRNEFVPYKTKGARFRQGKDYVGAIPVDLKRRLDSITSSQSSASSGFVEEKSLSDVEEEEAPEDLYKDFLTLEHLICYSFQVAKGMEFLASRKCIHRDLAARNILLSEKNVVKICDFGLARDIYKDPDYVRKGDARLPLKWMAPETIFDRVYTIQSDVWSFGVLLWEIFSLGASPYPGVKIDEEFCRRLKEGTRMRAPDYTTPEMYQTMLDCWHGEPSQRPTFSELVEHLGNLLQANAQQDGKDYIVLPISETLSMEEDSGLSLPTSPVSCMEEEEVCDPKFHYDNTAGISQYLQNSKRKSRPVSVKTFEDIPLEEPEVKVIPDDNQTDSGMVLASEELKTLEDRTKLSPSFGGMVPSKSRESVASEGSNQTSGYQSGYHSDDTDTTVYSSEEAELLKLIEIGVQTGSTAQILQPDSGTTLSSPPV
Chain of Aurora kinase B (Q96GD4 whole entry): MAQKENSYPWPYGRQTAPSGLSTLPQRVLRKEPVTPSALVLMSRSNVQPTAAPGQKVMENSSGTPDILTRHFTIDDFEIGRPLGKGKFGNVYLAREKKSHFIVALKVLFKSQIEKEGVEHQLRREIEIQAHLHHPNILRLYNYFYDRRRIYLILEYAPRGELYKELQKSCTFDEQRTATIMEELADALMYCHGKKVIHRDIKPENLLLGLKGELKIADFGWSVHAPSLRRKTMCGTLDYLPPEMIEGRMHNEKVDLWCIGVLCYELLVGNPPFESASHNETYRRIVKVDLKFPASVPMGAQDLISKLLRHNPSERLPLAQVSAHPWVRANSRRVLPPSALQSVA
Chain of TAK1/TAB1 (Q15750 whole entry, one chain of several): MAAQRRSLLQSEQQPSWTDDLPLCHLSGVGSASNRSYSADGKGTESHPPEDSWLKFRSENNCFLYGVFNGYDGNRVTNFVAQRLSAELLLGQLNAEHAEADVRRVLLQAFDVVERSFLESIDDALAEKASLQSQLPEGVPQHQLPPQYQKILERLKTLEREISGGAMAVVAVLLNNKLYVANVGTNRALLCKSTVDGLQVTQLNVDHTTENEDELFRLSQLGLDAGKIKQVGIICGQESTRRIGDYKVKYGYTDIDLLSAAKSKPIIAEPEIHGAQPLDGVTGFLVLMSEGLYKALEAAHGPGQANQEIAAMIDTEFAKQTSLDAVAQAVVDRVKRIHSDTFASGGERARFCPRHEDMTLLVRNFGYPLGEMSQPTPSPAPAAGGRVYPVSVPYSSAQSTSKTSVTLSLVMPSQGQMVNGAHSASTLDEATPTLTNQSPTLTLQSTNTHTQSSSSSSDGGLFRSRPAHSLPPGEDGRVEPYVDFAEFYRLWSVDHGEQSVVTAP

| Compound | IC50 [14] | IC50 [15] | IC50 [16] | IC50 [17] | further results |
| --- | --- | --- | --- | --- | --- |
| CC(=O)N1CCC(n2cc(-c3cnc(N)c4oc(-c5csc6cnccc56)cc34)cn2)CC1 |  |  |  |  | Drug metabolism [1]: Active; Drug metabolism [2]: Active; AUC(0-t) [3]: 21 ng·h/mL; bioavailability [4]: 1%; Vd [5]: 2.5 L/kg; Cmax [6]: 0.03 µM; AUC(0-inf) [7]: 187 ng·h/mL; half-life [8]: 0.1 h; clearance [9]: 178 mL/min/kg |
| Nc1ncc(-c2cnn([C@H]3CC[C@H](O)CC3)c2)c2cc(-c3cccc4cnsc34)oc12 |  |  |  |  | bioavailability [4]: 27%; AUC(0-inf) [10]: 821 ng·h/mL; Vd [5]: 12 L/kg; Cmax [6]: 1.1 µM; AUC(0-inf) [7]: 299 ng·h/mL; half-life [8]: 3.3 h; clearance [9]: 111 mL/min/kg |
| Nc1ncc(-c2cnn([C@H]3CC[C@H](O)CC3)c2)c2cc(-c3cccc4nnsc34)oc12 | 650 nM | 15 nM | 160 nM | 9 nM | Tmax [11]: 8 h; hepatic extraction ratio [12]: 0.48; hepatic extraction ratio [13]: 0.63; AUC(0-inf) [10]: 16000 ng·h/mL; Vd [5]: 4.1 L/kg; Cmax [6]: 7.8 µM; AUC(0-inf) [7]: 477 ng·h/mL; half-life [8]: 1.6 h; clearance [9]: 70 mL/min/kg |
| Nc1ncc(-c2cnn([C@H]3CC[C@H](O)CC3)c2)c2c(Cl)c(-c3cccc4nnsc34)oc12 | > 20000 nM | 18 nM | 6500 nM |  | bioavailability [18]: 32%; AUC(0-inf) [19]: 26800 ng·h/mL; Cmax [20]: 7.1 µM; IC50 [21]: 28 nM; hepatic extraction ratio [12]: 0.4; hepatic extraction ratio [13]: 0.39; bioavailability [4]: 52%; AUC(0-inf) [10]: 8770 ng·h/mL; Vd [5]: 2.1 L/kg; Cmax [6]: 3.8 µM; AUC(0-inf) [7]: 1700 ng·h/mL; half-life [8]: 2.1 h; clearance [9]: 20 mL/min/kg; inhibition in vivo at 100 mg/kg [22]: 62% |
| N#Cc1c(-c2cccc3nnsc23)oc2c(N)ncc(-c3cnn([C@H]4CC[C@H](O)CC4)c3)c12 | > 20000 nM | 17 nM | > 10000 nM | 160 nM | hepatic extraction ratio [12]: 0.38; hepatic extraction ratio [13]: 0.43 |
| Nc1ncc(-c2cnn([C@H]3CC[C@H](O)CC3)c2)c2c(-c3cccnc3)c(-c3cccc4nnsc34)oc12 | 8200 nM | 130 nM | 6900 nM | 110 nM | hepatic extraction ratio [12]: 0.41; hepatic extraction ratio [13]: 0.48 |
| Nc1ncc(-c2cnn([C@H]3CC[C@H](O)CC3)c2)c2c(-c3cncs3)c(-c3cccc4nnsc34)oc12 | 760 nM | 43 nM | 1700 nM | 31 nM | hepatic extraction ratio [12]: 0.55; hepatic extraction ratio [13]: 0.53 |
| Nc1ncc(-c2cnn([C@H]3CC[C@H](O)CC3)c2)c2c(CF)c(-c3cccc4nnsc34)oc12 | 18300 nM | 45 nM | 1500 nM | 17 nM | hepatic extraction ratio [12]: 0.49; hepatic extraction ratio [13]: 0.43 |
| Nc1ncc(-c2cnn([C@H]3CC[C@H](O)CC3)c2)c2c(C(F)F)c(-c3cccc4nnsc34)oc12 | > 20000 nM | 20 nM | 1700 nM | 14 nM | hepatic extraction ratio [12]: 0.48; hepatic extraction ratio [13]: 0.39; bioavailability [4]: 98%; AUC(0-inf) [10]: 33700 ng·h/mL; Vd [5]: 1 L/kg; Cmax [6]: 18.6 µM; AUC(0-inf) [7]: 3440 ng·h/mL; half-life [8]: 1.8 h; clearance [9]: 10 mL/min/kg |
| Cn1cc(-c2cnc(N)c3oc(-c4csc5cnccc45)cc23)cn1 | 3400 nM | 190 nM | 3000 nM | 150 nM |  |
| Cn1ccc(-c2cnc(N)c3oc(-c4csc5cnccc45)cc23)c1 |  |  |  | 4900 nM |  |
| Cn1cnc(-c2cnc(N)c3oc(-c4csc5cnccc45)cc23)c1 |  |  |  | 12700 nM |  |
| Nc1ncc(-c2ccoc2)c2cc(-c3csc4cnccc34)oc12 |  |  |  | 560 nM |  |
| Cc1ccc(-c2cnc(N)c3oc(-c4csc5cnccc45)cc23)o1 |  |  |  | 2100 nM |  |
| Nc1ncc(-c2ccsc2)c2cc(-c3csc4cnccc34)oc12 |  |  |  | 2200 nM |  |
| Cc1ccc(-c2cnc(N)c3oc(-c4csc5cnccc45)cc23)s1 |  |  |  | 4600 nM |  |
| Nc1ncc(-c2cscn2)c2cc(-c3csc4cnccc34)oc12 |  |  |  | 1400 nM |  |
| Cc1ncc(-c2cnc(N)c3oc(-c4csc5cnccc45)cc23)s1 |  |  |  | 230 nM |  |
| Nc1ncc(-c2ccccc2)c2cc(-c3csc4cnccc34)oc12 |  |  |  | 3200 nM |  |
| Nc1ncc(-c2cccnc2)c2cc(-c3csc4cnccc34)oc12 |  |  |  | 3800 nM |  |
| Nc1ncc(C2=CCNCC2)c2cc(-c3csc4cnccc34)oc12 |  |  |  | 23600 nM |  |
| COCC#Cc1cnc(N)c2oc(-c3csc4cnccc34)cc12 |  |  |  | 2900 nM |  |
| Cc1nn(C)cc1-c1cnc(N)c2oc(-c3csc4cnccc34)cc12 | > 20000 nM | 1000 nM | > 20000 nM | 3500 nM |  |
| Cc1c(-c2cnc(N)c3oc(-c4csc5cnccc45)cc23)cnn1C | 19900 nM | 3000 nM | 17400 nM | 4100 nM |  |
| Cc1nn(C)c(C)c1-c1cnc(N)c2oc(-c3csc4cnccc34)cc12 |  | 4400 nM |  | 23900 nM |  |
| COc1nn(C)cc1-c1cnc(N)c2oc(-c3csc4cnccc34)cc12 | > 20000 nM | 1700 nM | > 20000 nM | 600 nM |  |
| Cn1cc(-c2cnc(N)c3oc(-c4csc5cnccc45)cc23)c(C#N)n1 |  | > 10000 nM |  | 22800 nM |  |
